Experimental findings from patent US9932354B2, “Imidazo-oxadiazole and imidazo-thiadiazole derivatives” (Ares Trading S.A., priority 2012, dated 2018) are described below.

The test system of test [1] is Amyloid-β peptide release (Aβ42), HEK cells overexpressing APP (HEK-APP). The test is described as follows: Amyloid-β peptide release (Aβ42) assay, AlphaLISA on supernatant of HEK-APP cells. Format: cell-based. The settings on record: Homo sapiens, HEK293, 24 h incubation with compound, read-out: Ab42 IC50 Ranges. Summed up: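 HEK-APP cells treated with compounds for 24 h at 37 °C, 5% CO2. Supernatant Aβ42 or total Aβ measured by AlphaLISA after 4.5 h with antibody beads (6E10 acceptor beads for total). IC50 values derived.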

The test system of test [2] is Amyloid-β peptide release (AβTotal), HEK cells overexpressing APP (HEK-APP). The test is described as follows: Amyloid-β peptide release (AβTotal) assay, AlphaLISA on supernatant of HEK-APP cells. Format: cell-based. Conditions: ratio Abtot vs Ab42, HEK-APP cells, 24 h.

Structures are written as SMILES. pIC50: −log10 of the molar value.

As to `Cc1ncc2oc(-c3ccc(NC(=O)C(c4ccccc4)c4ccccc4)cn3)nn12` [Example 80, N-[6-(5-Methyl-imidazo[5,1-b][1,2,4]oxadiazol-2-yl)-pyridin-3-yl]-2,2-diphenyl-acetamide], the negative logarithm of the IC50 (pIC50) in test [1] was 6.00 to 6.30. For the same compound, in test [2], the Abtot/Ab42 selectivity ranges entry was “c (c: 50 fold > selectivity ≥ 10 fold)”.
Turning to `Cc1ncc2oc(-c3ccc(NC(=O)c4ccc(F)c(OC(F)(F)F)c4)cn3)nn12` [Example 16, 4-Fluoro-N-[6-(5-methyl-imidazo[5,1-b][1,2,4]oxadiazol-2-yl)-pyridin-3-yl]-3-trifluoromethoxy-benzamide], the pIC50 in test [1] was 5.66 to 6.00. In addition, the Abtot/Ab42 selectivity ranges entry in test [2] is given as “d (d: 10 fold > selectivity)”.
Regarding `Cc1ncc2oc(-c3ccc(NC(=O)Cc4ccc(Cl)cc4Cl)cc3)nn12` [Example 62, 2-(2,4-dichlorophenyl)-N-(4-(5-methylimidazo[5,1-b][1,3,4]oxadiazol-2-yl)phenyl)acetamide], the negative logarithm of the IC50 (pIC50) in test [1] is 6.00 to 6.30. The Abtot/Ab42 selectivity ranges result in test [2] is “b (b: 100 fold > selectivity ≥ 50 fold)”.
In the case of `COc1cc(NC(=O)Cc2ccccc2)ccc1-c1nn2c(C)ncc2o1` [Example 36, N-(3-methoxy-4-(5-methylimidazo[5,1-b][1,3,4]oxadiazol-2-yl)phenyl)-2-phenylacetamide], the pIC50 in test [1] was 5.66 to 6.00. In test [2], the Abtot/Ab42 selectivity ranges entry is “c (c: 50 fold > selectivity ≥ 10 fold)”.
As for `Cc1ccc(C)c(CC(=O)Nc2ccc(-c3nn4c(C)ncc4o3)nc2)c1` [Example 10, 2-(2,5-Dimethyl-phenyl)-N-[6-(5-methyl-imidazo [5,1-b][1,2,4]oxadiazol-2-yl)-pyridin-3-yl]-acetamide], the pIC50 in test [1] is 5.66 to 6.00. In test [2], the Abtot/Ab42 selectivity ranges entry is listed as “c (c: 50 fold > selectivity ≥ 10 fold)”.
For `Cc1ncc2sc(C(=O)N3CCCC3c3ccc(C(F)(F)F)cc3)nn12` (centres unmarked) [Example 112, (5-Methyl-imidazo[5,1-b][1,3,4]thiadiazol-2-yl)-[2-(4-trifluoromethyl-phenyl)-pyrrolidin-1-yl]-methanone], the negative logarithm of the IC50 (pIC50) in test [1] is 6.30 to 7.00. Also, the Abtot/Ab42 selectivity ranges result in test [2] is given as “d (d: 10 fold > selectivity)”.
`Cc1ncc2oc(-c3ccc(NC(=O)Cc4cccc(F)c4F)cn3)nn12` [Example 79, 2-(2,3-Difluoro-phenyl)-N-[6-(5-methyl-imidazo[5,1-b][1,2,4]oxadiazol-2-yl)-pyridin-3-yl]-acetamide]: in test [1], the negative-log IC50 (pIC50) was 5.66 to 6.00. The Abtot/Ab42 selectivity ranges entry in test [2] is “c (c: 50 fold > selectivity ≥ 10 fold)”.
In the case of `Cc1ncc2sc(C(=O)N(Cc3ccccc3)CC(C)C)nn12` [Example 89, 5-Methyl-imidazo[5,1-b][1,3,4]thiadiazole-2-carboxylic acid benzyl-isobutyl-amide], the negative logarithm of the IC50 (pIC50) in test [1] is 6.30 to 7.00. For the same compound, in test [2], the Abtot/Ab42 selectivity ranges entry is “d (d: 10 fold > selectivity)”.
On the same counts, the results for `Cc1ncc2sc(C(=O)NCc3ccc(Oc4ccc(F)cc4)cc3)nn12` [Example 106, 5-Methyl-imidazo[5,1-b][1,3,4]thiadiazole-2-carboxylic acid 4-(4-fluoro-phenoxy)-benzylamide] are 6.30 to 7.00 and “b (b: 100 fold > selectivity ≥ 50 fold)”.
As for `Cc1ncc2sc(-c3ccc(NC(=O)Cc4ccc(Cl)c(Cl)c4)cc3)nn12` [Example 128, 2-(3,4-Dichloro-phenyl)-N-[4-(5-methyl-imidazo[5,1-b][1,3,4]thiadiazol-2-yl)-phenyl]-acetamide], in test [1], the pIC50 is 6.00 to 6.30. For the same compound, in test [2], the Abtot/Ab42 selectivity ranges result is “c (c: 50 fold > selectivity ≥ 10 fold)”.
Turning to `Cc1ncc2oc(-c3ccc(NC(=O)Cc4ccc(F)cc4Cl)cc3)nn12` [Example 65, 2-(2-chloro-4-fluorophenyl)-N-(4-(5-methylimidazo[5,1-b][1,3,4]oxadiazol-2-yl)phenyl)acetamide], the pIC50 in test [1] is 5.66 to 6.00. Besides, in test [2], the Abtot/Ab42 selectivity ranges entry is “c (c: 50 fold > selectivity ≥ 10 fold)”.
Regarding `Cc1ncc2oc(-c3ccc(NC(=O)Cc4ccc(OC(F)(F)F)cc4)cn3)nn12` [Example 11, N-[6-(5-Methyl-imidazo[5,1-b][1,2,4]oxadiazol-2-yl)-pyridin-3-yl]-2-(4-trifluoromethoxy-phenyl)-acetamide], the pIC50 in test [1] was 6.30 to 7.00. Further, the Abtot/Ab42 selectivity ranges entry in test [2] is “b (b: 100 fold > selectivity ≥ 50 fold)”.
On the same counts, the results for `Cc1ncc2sc(C(=O)NC(c3ccc(Cl)cc3)C3CC3)nn12` (centres unmarked) [Example 91, 5-Methyl-imidazo[5,1-b][1,3,4]thiadiazole-2-carboxylic acid [(4-chloro-phenyl)-cyclopropyl-methyl]-amide] are 5.66 to 6.00 and “d (d: 10 fold > selectivity)”.
Take `Cc1cc(-c2nn3c(C)ncc3o2)ccc1NC(=O)Cc1c(Cl)cc(C(F)(F)F)cc1Cl` [Example 42, 2-(2,6-dichloro-4-(trifluoromethyl)phenyl)-N-(2-methyl-4-(5-methylimidazo[5,1-b][1,3,4]oxadiazol-2-yl)phenyl)acetamide]: in test [1], the pIC50 is 6.00 to 6.30. Further, the Abtot/Ab42 selectivity ranges result in test [2] was “b (b: 100 fold > selectivity ≥ 50 fold)”.
As for `COc1cc(NC(=O)Cc2ccccc2C(F)(F)F)ccc1-c1nn2c(C)ncc2o1` [Example 37, N-(3-methoxy-4-(5-methylimidazo[5,1-b][1,3,4]oxadiazol-2-yl)phenyl)-2-(2-(trifluoromethyl)phenyl)acetamide], in test [1], the pIC50 was 5.66 to 6.00. The Abtot/Ab42 selectivity ranges entry in test [2] is recorded as “c (c: 50 fold > selectivity ≥ 10 fold)”.
As for `Cc1ccc(C2CCCN2C(=O)c2nn3c(C)ncc3s2)cc1` (centres unmarked) [Example 119, (5-Methyl-imidazo[5,1-b][1,3,4]thiadiazol-2-yl)-(2-p-tolyl-pyrrolidin-1-yl)-methanone], in test [1], the pIC50 was 6.30 to 7.00. For the same compound, in test [2], the Abtot/Ab42 selectivity ranges result is “d (d: 10 fold > selectivity)”.
On the same counts, the results for `Cc1ncc2oc(-c3ccc(NC(=O)C(C)c4cccc(C(F)(F)F)c4)cc3)nn12` (centres unmarked) [Example 55, N-(4-(5-methylimidazo[5,1-b][1,3,4]oxadiazol-2-yl)phenyl)-2-(3-(trifluoromethyl)phenyl)propanamide] are 5.66 to 6.00 and “c (c: 50 fold > selectivity ≥ 10 fold)”.
For `Cc1ncc2sc(C(=O)N(C)Cc3cccc(C(F)(F)F)c3)nn12` [Example 101, 5-Methyl-imidazo[5,1-b][1,3,4]thiadiazole-2-carboxylic acid methyl-(3-trifluoromethyl-benzyl)-amide], the negative logarithm of the IC50 (pIC50) in test [1] was 6.00 to 6.30. Further, the Abtot/Ab42 selectivity ranges entry in test [2] is listed as “d (d: 10 fold > selectivity)”.
In the case of `Cc1ncc2sc(C(=O)N3CCCC(c4ccc(F)cc4)C3)nn12` (centres unmarked) [Example 109, [3-(4-Fluoro-phenyl)-piperidin-1-yl]-(5-methyl-imidazo[5,1-b][1,3,4]thiadiazol-2-yl)-methanone], in test [1], the negative-log IC50 (pIC50) is 5.66 to 6.00. For the same compound, the Abtot/Ab42 selectivity ranges result in test [2] was “d (d: 10 fold > selectivity)”.
The matching figures for `Cc1ncc2oc(-c3ccc(NC(=O)Cc4cccc(Oc5ccccc5)c4)cn3)nn12` [Example 15, N-[6-(5-Methyl-imidazo[5,1-b][1,2,4]oxadiazol-2-yl)-pyridin-3-yl]-2-(3-phenoxy-phenyl)-acetamide]: 6.00 to 6.30 and “b (b: 100 fold > selectivity ≥ 50 fold)”.
With `Cc1ncc2oc(-c3ccc(NC(=O)Cc4ccc(C(F)(F)F)cc4)cc3)nn12` [Example 48, N-[4-(5-Methyl-imidazo[5,1-b][1,2,4]oxadiazol-2-yl)-phenyl]-2-(4-trifluoromethyl-phenyl)-acetamide], the pIC50 in test [1] was 5.66 to 6.00. In addition, the Abtot/Ab42 selectivity ranges entry in test [2] is reported as “c (c: 50 fold > selectivity ≥ 10 fold)”.
The matching figures for `Cc1ncc2oc(-c3ccc(NC(=O)Cc4ccc(Cl)cc4Cl)cn3)nn12` [Example 82]: 5.66 to 6.00 and “c (c: 50 fold > selectivity ≥ 10 fold)”.
On the same counts, the results for `Cc1ncc2sc(-c3ccc(NC(=O)Cc4cccc(C(F)(F)F)c4)cc3)nn12` [Example 100, N-[4-(5-Methyl-imidazo[5,1-b][1,3,4]thiadiazol-2-yl)-phenyl]-2-(3-trifluoromethyl-phenyl)-acetamide] are 6.30 to 7.00 and “b (b: 100 fold > selectivity ≥ 50 fold)”.
On to `Cc1ncc2sc(-c3nnc(NCc4ccc(F)cc4)o3)nn12` [Example 103, (4-Fluoro-benzyl)-[5-(5-methyl-imidazo[5,1-b][1,3,4]thiadiazol-2-yl)-[1,3,4]oxadiazol-2-yl]-amine], for which, in test [1], the negative-log IC50 (pIC50) was 6.00 to 6.30. Besides, the Abtot/Ab42 selectivity ranges entry in test [2] is listed as “d (d: 10 fold > selectivity)”.
The matching figures for `Cc1ncc2sc(C(=O)N3CCCC[C@H]3c3ccccc3)nn12` [Example 120, (5-Methyl-imidazo[5,1-b][1,3,4]thiadiazol-2-yl)-((S)-2-phenyl-piperidin-1-yl)-methanone]: 6.00 to 6.30 and “d (d: 10 fold > selectivity)”.
`Cc1ncc2oc(-c3ccc(NC(=O)Cc4cccc(C(F)(F)F)c4)cn3)nn12` [Example 14, N-[6-(5-Methyl-imidazo[5,1-b][1,2,4]oxadiazol-2-yl)-pyridin-3-yl]-2-(3-trifluoromethyl-phenyl)-acetamide]: the negative logarithm of the IC50 (pIC50) in test [1] was 5.66 to 6.00. In addition, the Abtot/Ab42 selectivity ranges result in test [2] was “c (c: 50 fold > selectivity ≥ 10 fold)”.
The matching figures for `Cc1ncc2oc(-c3ccc(NC(=O)Cc4c(Cl)cc(C(F)(F)F)cc4Cl)cc3)nn12` [Example 67, 2-(2,6-dichloro-4-(trifluoromethyl)phenyl)-N-(4-(5-methylimidazo [5,1-b][1,3,4]oxadiazol-2-yl)phenyl)acetamide]: 5.66 to 6.00 and “c (c: 50 fold > selectivity ≥ 10 fold)”.
The matching figures for `Cc1ncc2oc(-c3ccc(NC(=O)Cc4ccccc4C(F)(F)F)cn3)nn12` [Example 83, N-[6-(5-Methyl-imidazo[5,1-b][1,2,4]oxadiazol-2-yl)-pyridin-3-yl]-2-(2-trifluoromethyl-phenyl)-acetamide]: 5.66 to 6.00 and “c (c: 50 fold > selectivity ≥ 10 fold)”.
